Assay results taken from patent US20060210497A1, “Novel resorcinol derivatives” (Unilever Home & Personal Care USA, Division Of Conopco, Inc., priority 2005, published 2006).
pIC50: −log10 of the molar value.

How the values were obtained:
[1] = target: Mushroom tyrosinase; experiment: Mushroom tyrosinase assay; assay type: biochemical; settings: for pIC50: L-DOPA 0.5 mM, tyrosinase 0.1 mg/ml, phosphate pH 7.0, room temperature; for potency of tyrosinase inhibition, compared in words: cyclohexyl methyl resorcinol compared with ethyl resorcinol
Experimental: Mushroom Tyrosinase Assay Mushroom tyrosinase inhibition is indicative of reduction in melanin synthesis, thereby showing skin lightening effect. Reagents: • Assay buffer: phosphate (100 mM, pH 7.0) • Mushroom tyrosinase stock solution (Sigma-Aldrich, Batch # 023K7024): 0.2 mg/ml in assay buffer • L-DOPA stock solution: 1.05 mM in assay buffer • Test compound stock solutions: 10 mM in DMSO Assay Conditions: • Mushroom tyrosinase: 0.1 mg/ml in assay buffer • L-DOPA: 0.5 mM in assay buffer • Test compounds: various concentrations, 2.5% final [DMSO] • Temperature: room temperature Procedure: […] The reaction is started by adding mushroom tyrosinase (100 uL of stock solution) into each well and the absorbance is monitored at 490 nm over a time period of 30 sec to 2 min. The initial reaction velocity in the presence or absence of test compounds is calculated ([…] nm/ min) and the % inhibition of test compounds is calculated using the following equation: [formula] where v0 is the initial reaction velocity in the absence of compound, v is the slope of the reaction in the absence of mushroom tyrosinase and vi is the slope of the reaction in the presence of test compound. The data (% inhibition vs. [test compound]) is fitted using data analysis software and the concentration of test compound at 50% inhibition (IC50) is determined from the fitted data. The IC50 value refers to the skin lightener concentration that results in 50% tyrosinase inhibition relative to the control (with a goal being obtaining maximum tyrosinase inhibition at minimum concentration).

[2] = tested on: human sebocytes; experiment: Sebocyte assay (14C-acetate incorporation, sebocyte lipid synthesis); assay type: cell-based
Experimental: Sebocyte Assay Procedure:
Secondary cultures of human sebocytes obtained from an adult […] were grown in 96-well tissue culture plates (Packard) until three days post-confluence. Sebocyte growth medium consisted of Clonetics Keratinocyte Basal Medium (KBM) supplemented with 14 ug/ml bovine pituitary extract, 0.4 ug/ml hydrocortisone, 5 ug/ml insulin, 10 ng/ml epidermal growth factor, 1.2×10^−10 M cholera toxin, 100 units/ml penicillin, and 100 ug/ml streptomycin. All cultures were incubated at 37° C. in the presence of 7.5% CO2. Medium was changed three times per week.
On the day of experimentation, the growth medium was removed and the sebocytes washed three times with sterile Dulbecco's Modified Eagle Medium (DMEM; phenol red free). Fresh DMEM was added to each sample (triplicates) with 2-microliters of test agent solubilized in ethanol. Controls consisted of addition of ethanol alone. Each plate was returned to the incubator for 20-hours followed by the addition of ^14C-acetate buffer (5 mM final concentration, 56 mCi/mmol specific activity). Sebocytes were returned to the incubator for 4-hours, after which, each culture was rinsed 3-times with phosphate buffered saline to remove unbound label. Radioactive label remaining in the sebocytes was determined using a Packard TopCount scintillation counter. Statistical significance (p value) was calculated using student's t-test. Phenol Red, a known sebum suppressive agent, was employed as a positive control.

SMILES	pIC50 [1]	potency of tyrosinase inhibition, compared in words [1]	activity at 10 µM ([2]; Homo sapiens, 10 uM test agent, 20 h incubation then 4 h 14C-acetate label, read-out: % of Control (ethanol)) [%]	activity at 100 µM ([2]; Homo sapiens, 100 uM test agent, 20 h incubation then 4 h 14C-acetate label, read-out: % of Control (ethanol)) [%]	reduction in sebocyte lipid synthesis as compared to the vehicle control ([2]; concentration on the order of about 100 micro-molar)	activity at 28 µM ([2]; Homo sapiens, 28 uM test agent, 20 h incubation then 4 h 14C-acetate label, read-out: % of Control (ethanol)) [%]	activity at 280 µM ([2]; Homo sapiens, 280 uM test agent, 20 h incubation then 4 h 14C-acetate label, read-out: % of Control (ethanol)) [%]
CCc1ccc(O)cc1O [4-ethyl resorcinol (ER), 4-ethyl resorcinol, reference compound]	5.96	comparable potency					
Oc1ccc(CC2CCCCC2)c(O)c1 [CHMR, 4-cyclohexylmethyl resorcinol]	6.02	comparable potency	98.9	69.3	statistically significant reduction		
O=S1(=O)OC(c2ccc(O)cc2)(c2ccc(O)cc2)c2ccccc21 [Phenol Red, reference compound]						84.4	45.9
